Some test systems named below: HL-60(TB) leukemia; HS 578T breast; MDA-MB-231 breast; OVCAR-4 ovarian; NCI-H226 lung; UO-31 renal; HOP-92 NSCLC; NCI/ADR-RES ovarian; SNB-75 CNS; SK-MEL-28 melanoma.
What all share (assay): NCI-60 cell line screen, 48 h

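Step 1: Grow cells in 96-well plates. Step 2: Expose to compound for 48 hours at 5 concentrations. Step 3: Interpolate endpoints linearly; if unreached, use highest concentration. GI50 is the concentration that inhibits growth by half. At the TGI there is no net growth.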 Bounds are passed on as bounds.

For `COC(=O)[C@@H](C)C[C@H](Cc1ccccc1)NC(=O)c1nc([C@@H](C[C@H](C(C)C)N(C)C(=O)[C@@H](NC(=O)[C@H]2CCCCN2C)C(C)C)OC(C)=O)sc1C`, the GI50 is under 0.00167 µM with HL-60(TB) leukemia; 0.0024 µM with HS 578T breast; under 0.00167 µM in the test with MDA-MB-231 breast; 0.0179 µM in the test on OVCAR-4 ovarian; 0.0275 µM in the test with NCI-H226 lung; 0.0118 µM with UO-31 renal. The figures for the GI50 in the test with HOP-92 NSCLC, with NCI/ADR-RES ovarian and in the test with SNB-75 CNS were 0.00323 µM, 0.0521 µM and under 0.00167 µM, respectively. The TGI in the test with HL-60(TB) leukemia is under 0.00167 µM; with HS 578T breast it was over 16.7 µM; with MDA-MB-231 breast, 0.441 µM; in the test with OVCAR-4 ovarian, over 16.7 µM; with NCI-H226 lung, over 16.7 µM; in the test on UO-31 renal, over 16.7 µM. In addition, the TGI in the test with HOP-92 NSCLC is 16.5 µM; with NCI/ADR-RES ovarian, over 16.7 µM; with SNB-75 CNS, over 7.57 µM.
`CN(C)/C=C/c1nnc([N+](=O)[O-])s1`: the TGI in the test on HS 578T breast was 42.6 µM; in the test with MDA-MB-231 breast, 85.9 µM; with NCI-H226 lung, 41.9 µM; in the test with UO-31 renal, 29.7 µM; in the test with NCI/ADR-RES ovarian, 37.7 µM; in the test with SNB-75 CNS it was 66.6 µM.
Consider `COc1c2c(c3c(c1CCC(=O)O)OC(C)(C)C=C3)OC(C)(C)C=C2`, for which the TGI in the test with HL-60(TB) leukemia, in the test on SK-MEL-28 melanoma, with HS 578T breast, with MDA-MB-231 breast, with OVCAR-4 ovarian and in the test on NCI-H226 lung was over 100 µM in each case. The TGI in the test with UO-31 renal, in the test with NCI/ADR-RES ovarian and in the test with SNB-75 CNS was over 100 µM throughout.
For the molecule `COc1ccc(C(=O)/C=C/c2ccc(/C=C/c3cc(OC)c(OC)c(OC)c3)cc2)cc1`, the GI50 in the test with HL-60(TB) leukemia is 4.49 µM; in the test on SK-MEL-28 melanoma, 16.9 µM; in the test with HS 578T breast it was 9.11 µM; in the test on MDA-MB-231 breast, 10.2 µM; with OVCAR-4 ovarian, 6.31 µM; with NCI-H226 lung it was 3.57 µM. Besides, the GI50 was 4.64 µM in the test with UO-31 renal, 5.46 µM in the test with NCI/ADR-RES ovarian and 5.5 µM in the test on SNB-75 CNS. For the same molecule, the TGI in the test with HL-60(TB) leukemia was over 100 µM; in the test on SK-MEL-28 melanoma, over 100 µM; in the test on HS 578T breast, over 100 µM; in the test with MDA-MB-231 breast, over 100 µM; in the test with OVCAR-4 ovarian, 47.3 µM; in the test with NCI-H226 lung, 22.8 µM. Moreover, the figures for the TGI with UO-31 renal, in the test with NCI/ADR-RES ovarian and in the test on SNB-75 CNS were over 100 µM, over 100 µM and 47.7 µM, respectively.
With `Cc1occc1C(=S)Nc1ccc(Cl)c(COC(C)(C)C)c1`, the TGI is 45 µM in the test on HL-60(TB) leukemia; 30.1 µM in the test on SK-MEL-28 melanoma; 49.6 µM with HS 578T breast; 32 µM in the test on MDA-MB-231 breast; 33.1 µM in the test with OVCAR-4 ovarian; 34.2 µM in the test on NCI-H226 lung. Moreover, the TGI in the test on UO-31 renal turned out to be 26 µM; with HOP-92 NSCLC, 30.4 µM; in the test with NCI/ADR-RES ovarian, 33.4 µM.
Take `C=CCc1c2c(c(OC)c3ccoc13)C(=O)/C(=C/c1ccccc1OC)O2`: the GI50 in the test on SK-MEL-28 melanoma was 5.21 µM; in the test on HS 578T breast, 5.29 µM; in the test with MDA-MB-231 breast, 4.59 µM; in the test with OVCAR-4 ovarian, 3.34 µM; in the test on NCI-H226 lung, 3.22 µM; in the test with UO-31 renal, 4.98 µM. In addition, the values for the GI50 in the test on HOP-92 NSCLC, with NCI/ADR-RES ovarian and in the test on SNB-75 CNS were 2.07 µM, 2.82 µM and 1.44 µM, respectively. Besides, the TGI is over 100 µM in the test with SK-MEL-28 melanoma; over 100 µM with HS 578T breast; over 100 µM with MDA-MB-231 breast; over 100 µM in the test on OVCAR-4 ovarian; 20.5 µM in the test with NCI-H226 lung; over 100 µM with UO-31 renal. Moreover, the figures for the TGI with HOP-92 NSCLC, in the test with NCI/ADR-RES ovarian and with SNB-75 CNS were 6.2 µM, 10.8 µM and 4.91 µM, respectively.
As to `COc1cc(C2c3cc4c(cc3OC(N3CCCC3)C2C)OCO4)cc(OC)c1OC` (stereo not given), the TGI was over 100 µM in the test on SK-MEL-28 melanoma; 2.3 µM with HS 578T breast; 9.32 µM in the test with MDA-MB-231 breast; 80.1 µM in the test with OVCAR-4 ovarian; 3.19 µM with NCI-H226 lung; 41.2 µM with UO-31 renal. The TGI came out at 21.2 µM in the test with HOP-92 NSCLC, 0.531 µM in the test on NCI/ADR-RES ovarian and 9.4 µM in the test with SNB-75 CNS.
For `CC/C=C\C=C/C(=O)N/C=C/CC1Cc2cccc(O)c2C(=O)O1` (stereo not given), the GI50 in the test on HL-60(TB) leukemia is 23.8 µM; in the test with SK-MEL-28 melanoma it was 17.4 µM; in the test on HS 578T breast, 28.9 µM; with MDA-MB-231 breast, 17 µM; with OVCAR-4 ovarian it was 44.4 µM; in the test on NCI-H226 lung it was 39.6 µM. The GI50 with UO-31 renal was 35.4 µM; with NCI/ADR-RES ovarian, 35.5 µM; in the test with SNB-75 CNS it was 16 µM. Further, the TGI with HL-60(TB) leukemia is over 100 µM; with SK-MEL-28 melanoma, 58.7 µM; in the test with HS 578T breast, over 100 µM; with MDA-MB-231 breast it was 39 µM; with OVCAR-4 ovarian, over 100 µM; in the test with NCI-H226 lung, over 100 µM. In addition, the TGI with UO-31 renal, in the test with NCI/ADR-RES ovarian and in the test with SNB-75 CNS was over 100 µM throughout.
With `CCCN=Cc1cc(Cc2ccc(O)c(C=NCCC)c2)ccc1O`, the TGI in the test with HL-60(TB) leukemia stood at 5 µM; in the test with HS 578T breast, 92.2 µM; in the test on MDA-MB-231 breast it was 33.5 µM; with OVCAR-4 ovarian it was 86.1 µM; with NCI-H226 lung, 51.2 µM; in the test with UO-31 renal it was 36.3 µM. For the same molecule, the TGI was found to be 8.03 µM with HOP-92 NSCLC, 59.6 µM in the test on NCI/ADR-RES ovarian and 9.67 µM in the test on SNB-75 CNS.
As to `CC(C)(C)C#CC1=C(Br)C(=O)OC1`, the GI50 was 1.12 µM with SK-MEL-28 melanoma; over 26.9 µM in the test with HS 578T breast; 2.48 µM in the test with MDA-MB-231 breast; 1.85 µM in the test on OVCAR-4 ovarian; 23 µM in the test with NCI-H226 lung; 0.9 µM in the test on UO-31 renal. Moreover, the GI50 in the test on HOP-92 NSCLC was 2.82 µM; with NCI/ADR-RES ovarian it was 0.426 µM; in the test with SNB-75 CNS, 37.7 µM. Also, the TGI in the test on SK-MEL-28 melanoma is 67 µM; in the test with HS 578T breast it was over 78.2 µM; in the test with MDA-MB-231 breast it was 11 µM; with OVCAR-4 ovarian it was 19.6 µM; in the test with NCI-H226 lung, 68.1 µM; in the test on UO-31 renal, 3.22 µM. Besides, the TGI in the test with HOP-92 NSCLC is 9.2 µM; with NCI/ADR-RES ovarian, 2.8 µM; in the test with SNB-75 CNS, over 100 µM.
Turning to `CC1(C)SC2C(NC(=O)C(N)c3ccccc3)C(=O)N2C1C(=O)O` (stereo not given), the TGI in the test on HL-60(TB) leukemia, in the test on SK-MEL-28 melanoma, in the test on HS 578T breast, with MDA-MB-231 breast, in the test on UO-31 renal and with HOP-92 NSCLC was over 100 µM in each case. Further, the TGI with NCI/ADR-RES ovarian and in the test with SNB-75 CNS was over 100 µM each time.
